# According to patent publication US10519211B2, “Compounds as peptidic GLP1/glucagon/GIP receptor agonists” (SANOFI, priority 2016, dated 2019):
# Numbered stars: 1 amine (or outer) side, 2 acyl side, 3 side chain; on linkers, the order of the positions; unused ones are H or OH. Square brackets hold non-standard residues; d marks the D form. Side chains are listed from the residue outwards. Peptide text beside a SMILES is read from it. * marks the point of attachment. γGlu = O=C(O)[C@H](CCC(=O)[*:2])N[*:1]; Palmitoyl = CCCCCCCCCCCCCCCC(=O)*; Aib = CC(C)(N)C(=O)O
# System: female diet-induced obese (DIO) C57BL/6NHsd mice
# Experiment: Acute and chronic effects after subcutaneous treatment in female diet-induced obese (DIO) mice
# Format: in vivo, mouse
# Details: for Plasma insulin concentrations compared to DIO vehicle / Plasma total cholesterol concentrations compared to DIO vehicle: day 28; for 24 hour blood glucose profile following first treatment: 30 μg/kg s.c., day 1, fed DIO mice, vs DIO control; for Body mass change / Whole body fat mass change / Terminal liver mass (g) / Terminal plasma alanine aminotransferase (U/L) / Terminal plasma insulin (U/L) / Terminal plasma total cholesterol (mmol/L): twice-daily 30 μg/kg s.c.; for Body mass change: mean ± SEM; for Whole body fat mass change: QNMR predose vs day 26, mean ± SEM; for Terminal liver mass (g) / Terminal plasma alanine aminotransferase (U/L) / Terminal plasma insulin (U/L) / Terminal plasma total cholesterol (mmol/L): day 28, mean ± SEM
# Description: Female C57BL/6NHsd mice were ordered group housed from Envigo RMS Inc., shipped group housed and remained group housed with shipped cage mates in shoebox caging with wood chip bedding until day 38 of the predose phase. At the study start mice were between 25-26 weeks old.
# Mice were housed under vivarium conditions that included a 12 h light/dark cycle (light phase 04:00 AM-4:00 PM), room temperatures between 23-26° C. and a relative humidity between 30-70%. All animals had free access to water and a high fat diet (TD97366) for 16 weeks prior to pharmacological intervention (dosing phase). Feed was replaced with fresh feed weekly until and for the last time on day 38 of the predose phase. During the subsequent dosing phase, approximately 50% of the remaining feed were removed, replaced with fresh feed, and pellets were mixed evenly once per week.
# On predose day 38, obese DIO mice were assigned to treatment groups (n=8) to match mean body masses between all DIO groups. An age-matched group with ad libitum access to a rodent maintenance diet (Teklad Global Diets Rodent 2014, pelleted) was included in the study as a lean control group. In the predosing phase from day 32 through 38, all study animals were treated with vehicle (Phosphate Buffered Saline, PBS, Gibco, without CaCl2 and MgCl2) once daily (s.c. approximately 0.2 mL/mouse).
# On day 37 of the predose phase, the test article was diluted with PBS to a concentration of 100 μg/mL and aliquots of this stock solution were stored at approximately ≤−60° C. Stock aliquots were thawed for weekly use and thereafter stored in a refrigerator at approximately 4° C. The injected test article solution was prepared fresh once on each dosing day by diluting stock solution with PBS to achieve the desired concentration.
# Mice were treated twice daily with a s.c. injection of PBS-vehicle or the test article for 28 days. The morning dosing was initiated and completed between 06:00 and 07:30 AM and the afternoon dosing between 2:00 and 3:30 PM. On day 28 of the dosing phase only the morning dose was administered. The applied volume was 5 ml/kg and the dose was adjusted to the most recent body mass recording of each individual.
# Animals had unlimited access to water and feed during the experiment. On day 1 of the dosing phase approximately 5 μL of blood were collected via tail clips at hour 0, prior to the first s.c. dose of PBS-vehicle or test-article as well as 1, 2, 3, 4, 6, and 24 hours post-dose. Animals received the second s.c. dose of PBS-vehicle or test-article 8 hours after the first dose. The 24 hour blood collection of the blood glucose profile was performed prior to dosing on day 2. Glucose measurements were performed in whole blood and in duplicate or triplicate using Aviva glucometers.
# Body mass was measured daily approximately between 06:00-07:30 AM from day 32 through 38 of the predosing phase and throughout the 28 days of the dosing phase. During the dosing phase mice were treated twice daily with either a s.c. injection of PBS-vehicle or test article.
# To determine whole body fat mass Quantitative Nuclear Magnetic Resonance (QNMR) measurements were performed on predosing day 37 and on day 26 of the dosing phase. During the dosing phase mice were treated twice daily with either a s.c. injection of PBS-vehicle or test article.
# On day 28 blood was collected prior to any other inlife activities for determination of plasma insulin concentrations. Then the morning dose was administered and necropsy was performed 4 hours post-dose. For this purpose animals were anesthetized with isoflurane and blood was collected by orbital bleeding.
# On day 28 and 4 hours after the morning dose, blood was collected from mice under isoflurane anesthesia as described above. Then mice were killed and livers were collected and weighed.
# Data are depicted as means±SEM. […] A One-Way ANOVA and Tukey Test were used for pairwise multiple comparisons of all groups (n=8/group, deviations from group size are indicated). […]
# [1] = 30 μg/kg s.c. twice daily, 28 days, in words
# [2] = 30 μg/kg s.c. twice daily, in words
Compound,Body mass compared to the DIO-Vehicle group [1],Plasma insulin concentrations compared to DIO vehicle [2],Plasma total cholesterol concentrations compared to DIO vehicle [2],Liver mass on day 28 compared to DIO animals treated with vehicle [2],Plasma alanine aminotransferase concentration on day 28 compared to DIO vehicle [2],24 hour blood glucose profile following first treatment (in words),"Body mass change (Table 11, 28 days) [g]",Whole body fat mass change (Table 11) [g],Terminal liver mass (g) (Table 11),Terminal plasma alanine aminotransferase (U/L) (Table 11),Terminal plasma insulin (U/L) (Table 11),Terminal plasma total cholesterol (mmol/L) (Table 11),Whole body fat mass compared to the DIO-Vehicle group [1],"Body mass change (Table 9, 28 days) [g]",Whole body fat mass change (Table 9) [g],Terminal liver mass (g) (Table 9),Terminal plasma alanine aminotransferase (U/L) (Table 9),Terminal plasma insulin (U/L) (Table 9),Terminal plasma total cholesterol (mmol/L) (Table 9)
"CCCCCCCCCCCCCCCC(=O)N[C@@H](CCC(=O)N[C@@H](CCC(=O)NCCCC[C@H](NC(=O)[C@H](CC(C)C)NC(=O)[C@H](CCCCN)NC(=O)[C@H](CO)NC(=O)[C@H](CC(C)C)NC(=O)[C@H](CC(=O)O)NC(=O)[C@H](CO)NC(=O)[C@@H](NC(=O)[C@H](Cc1ccccc1)NC(=O)[C@@H](NC(=O)CNC(=O)[C@H](CCC(N)=O)NC(=O)C(C)(C)NC(=O)[C@@H](N)Cc1c[nH]cn1)[C@@H](C)O)[C@@H](C)O)C(=O)N[C@@H](CCC(=O)O)C(=O)N[C@@H](CCC(=O)O)C(=O)N[C@@H](CCC(N)=O)C(=O)N[C@@H](CCCNC(=N)N)C(=O)N[C@@H](CCC(N)=O)C(=O)NC(C)(C)C(=O)N[C@@H](CCC(=O)O)C(=O)N[C@@H](Cc1ccccc1)C(=O)N[C@H](C(=O)N[C@@H](CCC(=O)O)C(=O)N[C@@H](Cc1c[nH]c2ccccc12)C(=O)N[C@@H](CC(C)C)C(=O)N[C@@H](CCCCN)C(=O)N[C@@H](C)C(=O)N[C@H](C)C(=O)NCC(=O)N1CCC[C@H]1C(=O)N1CCC[C@H]1C(=O)N[C@@H](CO)C(=O)NC(C)(C)C(=O)N[C@@H](CCCCN)C(=O)N1CCC[C@H]1C(=O)N1CCC[C@H]1C(=O)N1CCC[C@H]1C(=O)N[C@@H](CCCCN)C(N)=O)[C@@H](C)CC)C(=O)O)C(=O)O [SEQ ID NO: 10, H-Aib-Q-G-T-F-T-S-D-L-S-K-L-K[gGlu-gGlu-Palm]-E-E-Q-R-Q-Aib-E-F-I-E-W-L-K-A-dAla-G-P-P-S-Aib-K-P-P-P-K-NH2] (H-H[Aib]QGTFTSDLSKLK([γGlu-γGlu-Palmitoyl])EEQRQ[Aib]EFIEWLKA[dA]GPPS[Aib]KPPPK-NH2)",statistically significant decrease in body mass,statistically significant reduction in plasma insulin concentrations,statistically significant reduction in plasma total cholesterol concentrations,statistically significantly lower liver mass,statistically significantly lower plasma alanine aminotransferase concentration,decrease in blood glucose concentrations below concentrations observed in DIO control mice,-7.14 ± 0.64,-6.48 ± 0.90,+1.07 ± 0.04 g,+56.75 ± 4.65 U/L,+35.81 ± 2.79 U/L,+4.28 ± 0.15 mmol/L,–,–,–,–,–,–,–
"CCCCCCCCCCCCCCCC(=O)N[C@@H](CCC(=O)N[C@@H](CCC(=O)NCCCC[C@H](NC(=O)[C@H](CC(C)C)NC(=O)[C@H](CCCCN)NC(=O)[C@H](CO)NC(=O)[C@H](CC(C)C)NC(=O)[C@H](CC(=O)O)NC(=O)[C@H](CO)NC(=O)[C@@H](NC(=O)[C@H](Cc1ccccc1)NC(=O)[C@@H](NC(=O)CNC(=O)[C@H](CCC(N)=O)NC(=O)C(C)(C)NC(=O)[C@@H](N)Cc1c[nH]cn1)[C@@H](C)O)[C@@H](C)O)C(=O)N[C@@H](CCC(=O)O)C(=O)N[C@@H](CCCCN)C(=O)N[C@@H](CCC(N)=O)C(=O)N[C@@H](CCCNC(=N)N)C(=O)N[C@@H](CCC(N)=O)C(=O)NC(C)(C)C(=O)N[C@@H](CCC(=O)O)C(=O)N[C@@H](Cc1ccccc1)C(=O)N[C@H](C(=O)N[C@@H](CCC(=O)O)C(=O)N[C@@H](Cc1c[nH]c2ccccc12)C(=O)N[C@@H](CC(C)C)C(=O)N[C@@H](CCCCN)C(=O)N[C@@H](C)C(=O)N[C@H](C)C(=O)NCC(=O)N1CCC[C@H]1C(=O)N1CCC[C@H]1C(=O)N[C@@H](CO)C(=O)NC(C)(C)C(=O)N[C@@H](CCCCN)C(=O)N1CCC[C@H]1C(=O)N1CCC[C@H]1C(=O)N1CCC[C@H]1C(=O)N[C@@H](CCCCN)C(N)=O)[C@@H](C)CC)C(=O)O)C(=O)O [SEQ ID NO: 7, H-Aib-Q-G-T-F-T-S-D-L-S-K-L-K[gGlu-gGlu-Palm]-E-K-Q-R-Q-Aib-E-F-I-E-W-L-K-A-dAla-G-P-P-S-Aib-K-P-P-P-K-NH2] (H-H[Aib]QGTFTSDLSKLK([γGlu-γGlu-Palmitoyl])EKQRQ[Aib]EFIEWLKA[dA]GPPS[Aib]KPPPK-NH2)",statistically significant decrease in body mass,statistically significant reduction in plasma insulin concentrations,statistically significant reduction in plasma total cholesterol concentrations,statistically significantly lower liver mass,statistically significantly lower plasma alanine aminotransferase concentration,decrease in blood glucose concentrations below concentrations observed in DIO control mice,–,–,–,–,–,–,statistically significantly reduction in whole body fat mass,-5.58 ± 0.60,-4.46 ± 0.50,+1.14 ± 0.04 g,+47.63 ± 6.76 U/L,+58.04 ± 6.33 U/L,+4.19 ± 0.15 mmol/L
